#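 Where inhibition never reached the appropriate level, the endpoint shown equals the highest concentration tested. Otherwise, values were interpolated linearly from a five-concentration, 48-hour dose response in 96-well plates. Here, GI50 denotes the concentration required for 50% inhibition of growth. TGI: concentration producing complete growth inhibition.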
# How the values were obtained:
# Assay in all cases: DTP human tumour cell line panel, 48 h
# [1] = tested on: MCF7 breast
# [2] = tested on: EKVX NSCLC
# [3] = tested on: SK-MEL-2 melanoma
# [4] = tested on: COLO 205 colon
# [5] = tested on: SF-268 CNS
# [6] = tested on: SNB-75 CNS
# [7] = tested on: ACHN renal
# [8] = tested on: SK-MEL-5 melanoma
# [9] = tested on: HOP-92 NSCLC
# [10] = tested on: A549 NSCLC
# [11] = tested on: BT-549 breast
# [12] = tested on: OVCAR-4 ovarian
# [13] = tested on: UACC-257 melanoma
# [14] = tested on: HCT-15 colon
# [15] = tested on: MDA-MB-435
# [16] = tested on: K-562 leukemia
# [17] = tested on: A498 renal
# [18] = tested on: OVCAR-5 ovarian
# [19] = tested on: NCI/ADR-RES ovarian
# [20] = tested on: CAKI-1 renal
# [21] = tested on: SR leukemia
# [22] = tested on: NCI-H522 lung
# [23] = tested on: SF-295 CNS
# [24] = tested on: NCI-H460 lung
# [25] = tested on: IGROV1 ovarian
# [26] = tested on: TK-10 renal
# [27] = tested on: CCRF-CEM leukemia
# [28] = tested on: LOX IMVI melanoma
# [29] = tested on: RPMI-8226 leukemia
# [30] = tested on: DU-145 prostate
# [31] = tested on: RXF 393 renal
# [32] = tested on: NCI-H23 lung
# [33] = tested on: HOP-62 NSCLC
# [34] = tested on: UO-31 renal
# [35] = tested on: SNB-19 CNS
# [36] = tested on: PC-3 prostate
# [37] = tested on: MOLT-4 leukemia
# [38] = tested on: 786-0 renal
# [39] = tested on: SK-MEL-28 melanoma
# [40] = tested on: SF-539 CNS
# [41] = tested on: T-47D breast
# [42] = tested on: HT29 colon
# [43] = tested on: HCC-2998 colon
# [44] = tested on: UACC-62 melanoma
# [45] = tested on: HL-60(TB) leukemia
# [46] = tested on: SK-OV-3 ovarian
# [47] = tested on: HS 578T breast
# [48] = tested on: MDA-MB-231 breast
# [49] = tested on: MALME-3M melanoma
# [50] = tested on: NCI-H226 lung
# [51] = tested on: M14 melanoma
# [52] = tested on: OVCAR-3 ovarian
# [53] = tested on: U251 CNS
# [54] = tested on: KM12 colon
# [55] = tested on: OVCAR-8 ovarian
# [56] = tested on: HCT-116 colon
# [57] = tested on: SW-620 colon
# [58] = tested on: SN12C renal
smiles,measurement,setting,value
COC(=O)C(C)NP(=O)(OCc1ccc(Cn2cnc3c(=O)[nH]c(N)nc32)cc1)Oc1ccccc1 (configuration not stated),GI50,[1],> 100 µM
same,TGI,[1],> 100 µM
same,GI50,[2],> 100 µM
same,TGI,[2],> 100 µM
same,GI50,[3],> 100 µM
same,TGI,[3],> 100 µM
same,GI50,[4],> 100 µM
same,TGI,[4],> 100 µM
same,GI50,[5],> 100 µM
same,TGI,[5],> 100 µM
same,GI50,[6],> 100 µM
same,TGI,[6],> 100 µM
same,GI50,[7],> 100 µM
same,TGI,[7],> 100 µM
same,GI50,[8],> 100 µM
same,TGI,[8],> 100 µM
same,GI50,[9],> 100 µM
same,TGI,[9],> 100 µM
same,GI50,[10],> 100 µM
same,TGI,[10],> 100 µM
same,GI50,[11],> 100 µM
same,TGI,[11],> 100 µM
same,GI50,[12],> 100 µM
same,TGI,[12],> 100 µM
same,GI50,[13],> 100 µM
same,TGI,[13],> 100 µM
same,GI50,[14],> 100 µM
same,TGI,[14],> 100 µM
same,GI50,[15],> 100 µM
same,TGI,[15],> 100 µM
same,GI50,[16],> 100 µM
same,TGI,[16],> 100 µM
same,GI50,[17],> 100 µM
same,TGI,[17],> 100 µM
same,GI50,[18],> 100 µM
same,TGI,[18],> 100 µM
same,GI50,[19],> 100 µM
same,TGI,[19],> 100 µM
same,GI50,[20],> 100 µM
same,TGI,[20],> 100 µM
same,GI50,[21],> 100 µM
same,TGI,[21],> 100 µM
same,GI50,[22],> 100 µM
same,TGI,[22],> 100 µM
same,GI50,[23],> 100 µM
same,TGI,[23],> 100 µM
same,GI50,[24],> 100 µM
same,TGI,[24],> 100 µM
same,GI50,[25],> 100 µM
same,TGI,[25],> 100 µM
same,GI50,[26],> 100 µM
same,TGI,[26],> 100 µM
same,GI50,[27],> 100 µM
same,TGI,[27],> 100 µM
same,GI50,[28],> 100 µM
same,TGI,[28],> 100 µM
same,GI50,[29],> 100 µM
same,TGI,[29],> 100 µM
same,GI50,[30],> 100 µM
same,TGI,[30],> 100 µM
same,GI50,[31],> 100 µM
same,TGI,[31],> 100 µM
same,GI50,[32],> 100 µM
same,TGI,[32],> 100 µM
same,GI50,[33],> 100 µM
same,TGI,[33],> 100 µM
same,GI50,[34],> 100 µM
same,TGI,[34],> 100 µM
same,GI50,[35],> 100 µM
same,TGI,[35],> 100 µM
same,GI50,[36],> 100 µM
same,TGI,[36],> 100 µM
same,GI50,[37],> 100 µM
same,TGI,[37],> 100 µM
same,GI50,[38],> 100 µM
same,TGI,[38],> 100 µM
same,GI50,[39],> 100 µM
same,TGI,[39],> 100 µM
same,GI50,[40],> 100 µM
same,TGI,[40],> 100 µM
same,GI50,[41],34.6 µM
same,TGI,[41],> 100 µM
same,GI50,[42],> 100 µM
same,TGI,[42],> 100 µM
same,GI50,[43],> 100 µM
same,TGI,[43],> 100 µM
same,GI50,[44],> 100 µM
same,TGI,[44],> 100 µM
same,GI50,[45],> 100 µM
same,TGI,[45],> 100 µM
same,GI50,[46],> 100 µM
same,TGI,[46],> 100 µM
same,GI50,[47],> 100 µM
same,TGI,[47],> 100 µM
same,GI50,[48],> 100 µM
same,TGI,[48],> 100 µM
same,GI50,[49],> 100 µM
same,TGI,[49],> 100 µM
same,GI50,[50],> 100 µM
same,TGI,[50],> 100 µM
same,GI50,[51],> 100 µM
same,TGI,[51],> 100 µM
same,GI50,[52],> 100 µM
same,TGI,[52],> 100 µM
same,GI50,[53],> 100 µM
same,TGI,[53],> 100 µM
same,GI50,[54],> 100 µM
same,TGI,[54],> 100 µM
same,GI50,[55],> 100 µM
same,TGI,[55],> 100 µM
same,GI50,[56],> 100 µM
same,TGI,[56],> 100 µM
same,GI50,[57],> 100 µM
same,TGI,[57],> 100 µM
same,GI50,[58],> 100 µM
same,TGI,[58],> 100 µM
CCN(CC)CCOc1ccc(/C(=C(\C)Cc2ccc(OC)cc2)c2ccc(OC(=O)NCc3ccccc3)cc2)cc1,GI50,[1],0.269 µM
same,TGI,[1],2.62 µM
same,GI50,[2],2.63 µM
same,TGI,[2],11.5 µM
same,GI50,[3],2.16 µM
same,TGI,[3],4.9 µM
same,GI50,[4],1.86 µM
same,TGI,[4],3.76 µM
same,GI50,[5],2.87 µM
same,TGI,[5],10.7 µM
same,GI50,[6],2.42 µM
same,TGI,[6],8.48 µM
same,GI50,[7],1.85 µM
same,TGI,[7],3.58 µM
same,GI50,[8],1.75 µM
same,TGI,[8],3.16 µM
same,GI50,[9],1.48 µM
same,TGI,[9],3.17 µM
same,GI50,[10],2.15 µM
same,TGI,[10],4.7 µM
same,GI50,[11],1.7 µM
same,TGI,[11],3.36 µM
same,GI50,[12],2.47 µM
same,TGI,[12],7.51 µM
same,GI50,[13],2.04 µM
same,TGI,[13],4.2 µM
same,GI50,[14],1.53 µM
same,TGI,[14],3.23 µM
same,GI50,[15],1.86 µM
same,TGI,[15],3.97 µM
same,GI50,[16],1.75 µM
same,TGI,[16],4.52 µM
same,GI50,[17],4.3 µM
same,TGI,[17],17.7 µM
same,GI50,[18],3.63 µM
same,TGI,[18],14.6 µM
same,GI50,[19],3.18 µM
same,TGI,[19],11.8 µM
same,GI50,[20],2.27 µM
same,TGI,[20],6.53 µM
same,GI50,[21],1.99 µM
same,TGI,[21],4.31 µM
same,GI50,[22],1.93 µM
same,TGI,[22],4.24 µM
same,GI50,[23],1.75 µM
same,TGI,[23],3.3 µM
same,GI50,[24],1.84 µM
same,TGI,[24],3.37 µM
same,GI50,[25],2.46 µM
same,TGI,[25],6.11 µM
same,GI50,[26],2.68 µM
same,TGI,[26],6.77 µM
same,GI50,[27],2.34 µM
same,TGI,[27],6.45 µM
same,GI50,[28],1.59 µM
same,TGI,[28],3 µM
same,GI50,[29],2.13 µM
same,TGI,[29],4.4 µM
same,GI50,[30],2.24 µM
same,TGI,[30],5.56 µM
same,GI50,[31],1.65 µM
same,TGI,[31],3.08 µM
same,GI50,[32],3.24 µM
same,TGI,[32],13.3 µM
same,GI50,[33],2.09 µM
same,TGI,[33],4.87 µM
same,GI50,[34],1.52 µM
same,TGI,[34],3.02 µM
same,GI50,[35],3.5 µM
same,TGI,[35],11.6 µM
same,GI50,[36],1.94 µM
same,TGI,[36],3.88 µM
same,GI50,[37],2.11 µM
same,TGI,[37],5.73 µM
same,GI50,[38],1.64 µM
same,TGI,[38],3.04 µM
same,GI50,[39],1.82 µM
same,TGI,[39],3.44 µM
same,GI50,[40],1.75 µM
same,TGI,[40],3.19 µM
same,GI50,[41],1.2 µM
same,TGI,[41],4.11 µM
same,GI50,[42],1.89 µM
same,TGI,[42],4.29 µM
same,GI50,[43],1.84 µM
same,TGI,[43],3.62 µM
same,GI50,[44],1.92 µM
same,TGI,[44],3.55 µM
same,GI50,[45],1.3 µM
same,TGI,[45],2.97 µM
same,GI50,[46],5.11 µM
same,TGI,[46],18.7 µM
same,GI50,[47],2.36 µM
same,TGI,[47],6.16 µM
same,GI50,[48],1.86 µM
same,TGI,[48],3.47 µM
same,GI50,[49],1.72 µM
same,TGI,[49],3.3 µM
same,GI50,[50],4.71 µM
same,TGI,[50],18.7 µM
same,GI50,[51],1.7 µM
same,TGI,[51],3.26 µM
same,GI50,[52],1.85 µM
same,TGI,[52],3.47 µM
same,GI50,[53],1.83 µM
same,TGI,[53],3.43 µM
same,GI50,[54],1.87 µM
same,TGI,[54],3.89 µM
same,GI50,[55],2.38 µM
same,TGI,[55],5.69 µM
same,GI50,[56],1.57 µM
same,TGI,[56],2.97 µM
same,GI50,[57],1.91 µM
same,TGI,[57],3.59 µM
same,GI50,[58],1.73 µM
same,TGI,[58],3.21 µM

# Reference: PubChem BioAssay (NCI)
